# Measured values taken from the OPERA property sets (Mansouri et al. 2018).
# Conditions: not given
SMILES,logP,solubility
Clc1cccc(-c2c(Cl)ccc(Cl)c2Cl)c1Cl,6.04,–
O=P(O)(O)CN(CP(=O)(O)O)CP(=O)(O)O,-3.53,–
CC(C)=NNc1ccc([N+](=O)[O-])cc1[N+](=O)[O-],3.05,–
CN1C(=O)CCC1(O)c1cccnc1 (stereo not drawn),-0.57,–
N#Cc1cc(-c2ccncc2)cnc1NCCCO,1.42,–
C/C=C(/C)C(=O)O[C@H]1CCN2CC=C(COC(=O)[C@](O)([C@H](C)OC)C(C)(C)O)[C@H]12,1.28,–
COc1c(O)cc(C)c(O)c1OC,1.05,–
CCCCCCCCOC(=O)c1ccccc1C(=O)OCCCCCCCC,8.1,–
Cc1sc(C(=O)Nc2nnn[nH]2)c(OC(C)C)c1Br,1.72,–
CCNc1nc(NC(C)(C)C)nc(OC)n1,3.1,–
CCCCN(C)C(=O)Nc1ccc(Cl)c(Cl)c1,4.1,–
CC1=CCC(C(C)(C)O)CC1 (stereo not drawn),2.98,–
c1ccc2cc3c4ccccc4c4ccccc4c3cc2c1,6.41,–
CCn1cc(C(=O)O)c(=O)c2cc(F)c(N3CCNC(C)C3)c(F)c21 (stereo not drawn),-0.3,–
NC(N)=Nc1nc(CSCCC(N)=NS(N)(=O)=O)cs1,-0.64,–
Nc1nc(=O)n([C@@H]2CS[C@H](CO)O2)cc1F,-0.43,–
Cc1ccc(C)c(NCc2cnc3nc(N)nc(N)c3c2C)c1,2.29,–
COc1ccc(C(=O)CCC(=O)O)cc1,1.38,–
NS(=O)(=O)c1cc2c(cc1Cl)NC(C1CC3C=CC1C3)NS2(=O)=O (stereo not drawn),1.95,–
Cc1c(Cl)ccc(Cc2ccc(Cl)cc2Cl)c1Cl,7.2,–
NC(=O)CCCN=C(c1ccc(Cl)cc1)c1cc(F)ccc1O,3.06,–
CCCCCCCCNC(=O)n1cc(F)c(=O)[nH]c1=O,3.9,–

SMILES,logP,solubility
N#Cc1cccc(N=C=S)c1,3.13,–
CN1CC=C(c2ccc(N)cc2)CC1,1.48,–
Cc1cc(OCCNCC2CC(=O)c3ccccc3C2=O)c(C(C)C)cc1O (stereo not drawn),4.25,–
Clc1cc2c(Cl)cc(Cl)c(Cl)c2c(Cl)c1Cl,7.5,–
O=C(O)Cc1ccccc1I,2.33,–
CNC(=O)CCC(=O)c1cccnc1,-0.69,–
CCCN1CCOC2c3cc(O)ccc3CCC21 (stereo not drawn),2.44,–
CC(C)COCC(C)C,2.78,–
COc1ccc(OCCN(C)C)cc1,1.23,–
COC(=O)c1ccccc1S(=O)(=O)NC(=O)Nc1nc(C)cc(C)n1,1.2,–
C=CC(=O)NCCCN(C)C,0,–
CCCCNC(=O)CCC(NS(=O)(=O)c1ccc(C)cc1)C(=O)O (stereo not drawn),0,–
COc1ccc(C(C)NCCC(c2ccccc2)c2ccccc2)cc1OC (stereo not drawn),5.8,–
CNS(=O)(=O)c1ccc(C)cc1,1.28,–
CCCC(C)CCC(C)=O (stereo not drawn),2.92,–
Nc1ccc([N+](=O)[O-])cn1,0.65,–
O=C1CCC2CCC(=O)N12,-1.11,–
OCc1c(F)cccc1F,1.12,–
c1ccc2nc3ccc4ccccc4c3cc2c1,4.48,–
O=[N+]([O-])c1cc(C(F)F)c(Nc2ncc(C(F)(F)F)cc2Cl)c([N+](=O)[O-])c1,3.52,–
CCCCC(=O)CCCC,2.88,–
CC(=O)OCCN(CCC#N)c1ccc(N=Nc2nc3ccc([N+](=O)[O-])cc3s2)cc1,4.08,0.00157 mM

SMILES,logP,solubility
COc1ccc(C(=O)CS(=O)(=O)c2ccc(C)cc2)cc1,2.47,–
NC(=O)C=Cc1ccc([N+](=O)[O-])o1,0.65,–
NS(=O)(=O)c1cc2cc(CNCCO)sc2s1,-0.72,–
Nc1c(Oc2ccccc2)c(Oc2ccccc2)c(N)c2c1C(=O)c1ccccc1C2=O,5.19,–
CCCCC1CO1 (stereo not drawn),1.95,–
C[C@H](CSC(=O)c1ccccc1)C(=O)N1C[C@@H](Sc2ccccc2)C[C@H]1C(=O)O,4.4,–
Clc1ccc(Nc2cc3nc4ccccc4n(-c4ccc(Cl)cc4)c-3cc2=NCCCN2CCCCC2)cc1,8.18,–
CC1=NS(=O)(=O)c2ncccc2N1,-0.91,–
N#CCCOc1cccc2ccccc12,2.8,–
CC(=O)OC1C=CC2C3Cc4ccc(O)c5c4C2(CCN3C)C1O5 (stereo not drawn),1.55,–
CCCCOC(=O)c1ccccc1C(=O)OCCCC,4.5,–
OCCOCCOCCO,-1.75,–
CC(=O)N[C@@H](Cc1ccc(O)cc1)C(=O)O,1.32,–
CC1COCc2cc3c(cc21)C(C)(C)C(C)C3(C)C (stereo not drawn),5.9,–
O=C(O)COc1cccc2ccccc12,2.6,–
CCCCCCCCCCCCN1CC(C(=O)OC)CC1=O (stereo not drawn),4,–
Clc1cc2c(cc1Cl)-c1cc(Cl)c(Cl)cc1-2,6.14,–
COc1cc(Cl)c(Cl)c(Cl)c1O,3.72,–
O=[N+]([O-])c1c2ccccc2cc2ccccc12,4.78,–
C[C@@H]1CC[C@H](C)O1,1.22,–
Brc1cc2oc3cc(Br)c(Br)cc3c2cc1Br,6.1,0.000145 mM
OCCN1CC=C(c2ccccc2)CC1,2,–

SMILES,logP,solubility
CCCCCCOCCO,1.86,–
O=C(O)C(=O)Nc1nc(-c2ccc3c(c2)OCCO3)cs1,1.8,–
CCCCN(CCC)N=O,2.09,–
CCN(CC)P(=O)(N(CC)CC)N(CC)CC,2.53,–
CC(=O)OCn1cc2c(=O)n(COC(C)=O)cnc2n1,-0.2,–
CC(CCC(=O)NCC(=O)O)C1CCC2C3CC(O)C4CC(O)CCC4(C)C3CCC12C (stereo not drawn),2.15,–
CCCCCCNC(=S)NC,2.31,–
ClC1=C(Cl)C2(Cl)C(CBr)CC1(Cl)C2(Cl)Cl (stereo not drawn),5.9,–
CSc1nc(N)nc(C(Cl)(Cl)Cl)n1,3.12,–
CC(=O)c1ccc(NCc2cnc3nc(N)nc(N)c3c2C)cc1,1.45,–
C=CC(=O)OCCOC,0.56,–
Nc1ncnc2c1ncn2C1OC2COP(=O)(OCc3ccccc3)OC2C1O (stereo not drawn),1.15,–
CC(=O)CCC(C)C,1.88,–
OC(CNC1CCCCC1Br)Cn1ccnc1 (stereo not drawn),1.21,–
NC(=O)CC[C@H](N)C(=O)O,-3.64,–
CCNC(=S)NCC,0.57,–
CC1CCCCN1CCCOC(=O)c1ccc(Cl)c(Cl)c1 (stereo not drawn),–,0.0606 mM
N[C@@H](CSSC[C@H](N)C(=O)O)C(=O)O,-5.08,–
COc1ccc(C#N)cc1,1.7,–
Nc1cc([N+](=O)[O-])ccc1Cl,2.23,–
COc1cc2nc(N3CCN(C(=O)C4COc5ccccc5O4)CC3)nc(N)c2cc1OC (stereo not drawn),3.3,–

# Same assay, conditions: 20 °C
row,SMILES,solubility
1,COc1cc(C(Cl)(Cl)Cl)cc(Cl)n1,0.0433 mM
2,CN(C)C(=N)N,18.6 mM
3,CCc1ccc(C)nc1,99 mM
4,CCC(=O)c1ccccc1,14.9 mM

# Same assay, conditions: 23 °C
row,SMILES,solubility
1,CCOP(=S)(Oc1ccc([N+](=O)[O-])cc1)c1ccccc1 (stereo not drawn),0.00962 mM

# Same assay, conditions: 23.0 °C
row,SMILES,log10 OH rate constant (cm³/molecule/s)
1,CCC(C)(O)CC(C)C (stereo not drawn),-10.9
2,C=C1[C@H]2CC[C@@H]3[C@H]2C(C)(C)CCC[C@]13C,-10.3
3,CCC(=O)C(O)CC (stereo not drawn),-10.8
4,CC(=O)CCC=C(C)C,-9.8

# Same assay, conditions: 24 °C
row,SMILES,solubility
1,CCCN(CCC)N=O,99.9 mM

# Same assay, conditions: 25 °C
row,SMILES,solubility
1,Brc1cc(Br)c(Br)cc1Br,0.000102 mM
2,Brc1ccc(I)cc1,0.0312 mM
3,CCCCCCCCOC(=O)c1ccccc1C(=O)OCCCCCCCC,5.63e-05 mM
4,CCCCC(CC)COC(=O)c1ccccc1C(=O)OCC(CC)CCCC (stereo not drawn),0.000108 mM
5,Clc1cccc(Cl)c1,0.85 mM
6,"ClC1=C(Cl)[C@]2(Cl)[C@@H]3[C@@H]4C[C@@H]([C@H]5O[C@@H]45)[C@@H]3[C@@]1(Cl)C2(Cl)Cl (single isomer, unassigned)",0.00058 mM
7,NNC(=O)c1ccncc1,1020 mM
8,O=C1C2(Cl)C3(Cl)C4(Cl)C(Cl)(Cl)C5(Cl)C3(Cl)C1(Cl)C5(Cl)C24Cl (stereo not drawn),0.0055 mM
9,Cc1ccccc1N,155 mM
10,CCCCCOC(=O)CC,5.62 mM
11,COc1c(Cl)ccc(Cl)c1C(=O)O,27.7 mM
12,Nc1ccc(Cc2ccc(N)cc2)cc1,5.04 mM
13,COCCc1ccc(OCC(O)CNC(C)C)cc1 (stereo not drawn),63.2 mM
14,CC1COCc2cc3c(cc21)C(C)(C)C(C)C3(C)C (stereo not drawn),0.00677 mM
15,Nc1ccc2cc3ccccc3cc2c1,0.00673 mM
16,FC(Cl)C(F)(F)F (stereo not drawn),11 mM
17,O=[N+]([O-])c1c2ccccc2cc2ccccc12,0.000511 mM
18,Cc1cc(Cl)ccc1O,28.1 mM
19,CCOC=O,1190 mM
20,CCCCCCCCCl,0.0329 mM
21,Cc1ncc(CO)c(CN)c1O,2970 mM
22,CN(C)c1ccc(N=NS(=O)(=O)[O-])cc1.[Na+],79.6 mM
23,Oc1ccc(Cl)c(Cl)c1,56.8 mM

# Same assay, conditions: 25.0 °C
row,SMILES,log10 OH rate constant (cm³/molecule/s)
1,COC(=O)CCCC(=O)OC,-11.5
2,O=C1C=CC(=O)c2ccccc21,-11.5
3,COC(=O)C(C)O (stereo not drawn),-11.6
4,FCOC(C(F)(F)F)C(F)(F)F,-13.1
5,C1CN2CCN1CC2,-10.7
6,COC(=O)OC,-12.5
7,C=C(C)OC(C)=O,-10.2
8,O=C/C=C/C=C/C=O,-10
9,c1cc2ccc3cccc4ccc(c1)c2c34,-10.3
10,CC(=O)CCC(C)C,-11

# Same assay, conditions: 30 °C
row,SMILES,solubility
1,COc1ccccc1[N+](=O)[O-],11 mM
